Data taken from US20250368640A1 (BIOFRONT LTD, priority 2022, published 2025).
Read-outs that look alike come from different tables or passages of the source.

Legend:
[1] = tested on: MEK 1/2; experiment: MEK 1/2 degradation assay (western blot); format: cell-based, human; conditions: protein degradation, MV-411 or IMR32 cells
Method: MEK 1/2 Degradation Assay
(§1) MV-411 cells were cultured with medium (IMDM) and IMR32 cells were cultured with medium (MEM) prior to use. Cells were then incubated with a variety of concentrations of compound. After incubation, the cells were collected and lysed. The protein concentration was determined by BCA protein assay kit from Thermo (23227). The […] protein level was determined by western blots, using anti-human MEK 1/2 polyclonal antibody from CST (9122S). Proteins were loaded into each well of the pre-casting gels and subjected to electrophoretic separation by SDS-PAGE. The protein resolved by SDS-PAGE were transferred to PVDF, blocked by 5% skim milk, and probed with anti-human MEK1/2 antibody or β-actin antibody from CST (3700S) and COX IV antibody from CST (4850S), using standard western blotting procedure.

[2] = biological target: FLT3-ITD (Homo sapiens, UniProt P36888, ITD); experiment: FLT3-ITD enzyme inhibition assay; format: biochemical
FLT3-ITD, sequence (P36888 whole entry, looked up, change not shown): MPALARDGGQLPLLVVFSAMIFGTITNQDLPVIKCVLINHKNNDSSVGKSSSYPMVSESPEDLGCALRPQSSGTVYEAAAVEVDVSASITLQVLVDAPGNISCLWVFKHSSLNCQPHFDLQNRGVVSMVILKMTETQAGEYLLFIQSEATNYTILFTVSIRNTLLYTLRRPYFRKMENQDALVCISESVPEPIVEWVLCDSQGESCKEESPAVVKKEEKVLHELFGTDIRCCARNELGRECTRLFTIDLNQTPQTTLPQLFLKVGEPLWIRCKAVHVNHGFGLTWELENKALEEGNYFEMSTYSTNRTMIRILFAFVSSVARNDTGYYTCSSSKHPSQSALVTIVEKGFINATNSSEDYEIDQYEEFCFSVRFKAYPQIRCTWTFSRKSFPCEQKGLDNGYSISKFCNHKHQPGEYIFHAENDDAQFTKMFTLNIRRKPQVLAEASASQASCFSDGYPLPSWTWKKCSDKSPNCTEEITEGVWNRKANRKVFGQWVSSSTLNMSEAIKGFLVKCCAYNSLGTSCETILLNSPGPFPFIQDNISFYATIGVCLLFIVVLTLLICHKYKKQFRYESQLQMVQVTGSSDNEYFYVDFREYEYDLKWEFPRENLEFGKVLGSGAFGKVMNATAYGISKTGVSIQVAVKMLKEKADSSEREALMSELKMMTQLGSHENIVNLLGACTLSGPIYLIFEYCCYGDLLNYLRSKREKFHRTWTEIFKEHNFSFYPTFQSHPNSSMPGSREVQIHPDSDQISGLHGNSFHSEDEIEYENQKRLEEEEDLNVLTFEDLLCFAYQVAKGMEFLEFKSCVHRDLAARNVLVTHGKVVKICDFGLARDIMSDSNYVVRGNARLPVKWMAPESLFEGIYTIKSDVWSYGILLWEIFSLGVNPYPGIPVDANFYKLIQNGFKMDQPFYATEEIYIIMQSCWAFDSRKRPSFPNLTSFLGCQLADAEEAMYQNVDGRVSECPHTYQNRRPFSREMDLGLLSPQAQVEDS
Method: FLT3-ITD Enzyme Inhibition Assay
The compound was dissolved in 100% DMSO at the concentration of 10 mM. The FLT3-ITD protein was purchased from Invitrogen (PV6191). 10 μL per well of 2.5×FLT3-ITD protein was added to assay plate containing the test compound, centrifuged at 1000 rpm for 1 minute, and then incubated at 25° C. for 10 minutes. Peptide 2 was purchased from GL Biochem (112394) and ATP was purchased from Promega (V9102). The two were added 15 μL per well mixture of 1.67× peptide 2 (final conc. is 3 μM) and ATP (final conc. is 97.2 μM), centrifuged at 1000 rpm for 1 minute, then incubated at 25° C. for 40 minutes. Then added 30 μL of stop buffer (100 mM HEPES pH7.5, 0.015% Brij-35, 0.2% Coating Reagent 3, 50 mM EDTA) to the assay plate and centrifuged at 1000 rpm for 1 minute. the product was determined. Based on the results, the IC50 value of the compound was calculated.

[3] = tested on: FLT3; experiment: FLT3 degradation assay (western blot, MV-411 cells); format: cell-based, human
Method: as §1, with “(IMDM)” for “(IMDM) and IMR32 cells were cultured with medium (MEM)”, “FLT3 monoclonal” for “MEK 1/2 polyclonal”, “(3462S).” for “(9122S).”, “FLT3” for “MEK1/2”, “-actin” for “β-actin”, “(3700S),” for “(3700S) and COX IV antibody from CST (4850S),”

[4] = biological target: T1, Aurora A (Homo sapiens (Human), UniProt O14965); experiment: Aurora A degradation assay (western blot); format: cell-based; conditions: protein degradation, IMR32, Huh7 or HL-60 cells
T1 sequence (O14965 whole entry): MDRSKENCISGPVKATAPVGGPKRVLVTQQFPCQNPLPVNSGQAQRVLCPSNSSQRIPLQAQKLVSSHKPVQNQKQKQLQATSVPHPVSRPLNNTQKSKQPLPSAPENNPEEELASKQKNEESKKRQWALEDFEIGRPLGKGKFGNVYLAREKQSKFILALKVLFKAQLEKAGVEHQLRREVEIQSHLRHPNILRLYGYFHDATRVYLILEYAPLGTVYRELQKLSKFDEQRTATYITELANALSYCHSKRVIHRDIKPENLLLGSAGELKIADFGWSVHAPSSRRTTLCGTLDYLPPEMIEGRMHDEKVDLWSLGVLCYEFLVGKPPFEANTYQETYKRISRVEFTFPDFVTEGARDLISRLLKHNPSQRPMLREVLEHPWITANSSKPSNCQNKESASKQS
Method: Aurora A Degradation Assay
IMR32 cells were cultured with medium (MEM), Huh7 cells were cultured with medium (DMEM) and HL-60 cells were culture with medium (IMDM) prior to use. Cells were then incubated with a variety of concentrations of compound. After incubation, the cells were collected and lysed. The protein concentration was determined by BCA protein assay kit from Thermo (23227). The AURKA protein level was determined by western blots, using anti-human AURKA monoclonal antibody from CST (14475S). Proteins were loaded into each well of the pre-casting gels and subjected to electrophoretic separation by SDS-PAGE. The protein resolved by SDS-PAGE were transferred to PVDF, blocked by 5% skim milk, and probed with anti-human AURKA antibody or β-actin antibody from CST (3700S) or COX IV antibody from CST (4850S), using standard western blotting procedure.

[5] = biological target: T2, HPK1 (Homo sapiens (Human), UniProt Q92918); experiment: HPK1 degradation assay (western blot, human PBMC); format: cell-based; conditions: for Dmax: read-out: HPK1 Dmax
Method: Frozen human PBMC were purchased from Shanghai OribioTech and recovered with culture medium (RMPI1640) prior to use. The cells were then incubated with a variety of concentrations of compound. After incubation, the cells were collected and lysed. The protein concentration was determined by BCA protein assay kit from Thermo (23227). The HPK1 protein level was determined by western blots, using anti-human HPK1 polyclonal antibody from CST (4472S). Proteins were loaded into each well of the pre-casting gels and subjected to electrophoretic separation by SDS-PAGE. The protein resolved by SDS-PAGE were transferred to PVDF, blocked by 5% skim milk, and probed with anti-human HPK1 antibody or β-actin antibody from CST (3700S), using standard western blotting procedure.
Target sequence in this assay (Q92918 whole entry): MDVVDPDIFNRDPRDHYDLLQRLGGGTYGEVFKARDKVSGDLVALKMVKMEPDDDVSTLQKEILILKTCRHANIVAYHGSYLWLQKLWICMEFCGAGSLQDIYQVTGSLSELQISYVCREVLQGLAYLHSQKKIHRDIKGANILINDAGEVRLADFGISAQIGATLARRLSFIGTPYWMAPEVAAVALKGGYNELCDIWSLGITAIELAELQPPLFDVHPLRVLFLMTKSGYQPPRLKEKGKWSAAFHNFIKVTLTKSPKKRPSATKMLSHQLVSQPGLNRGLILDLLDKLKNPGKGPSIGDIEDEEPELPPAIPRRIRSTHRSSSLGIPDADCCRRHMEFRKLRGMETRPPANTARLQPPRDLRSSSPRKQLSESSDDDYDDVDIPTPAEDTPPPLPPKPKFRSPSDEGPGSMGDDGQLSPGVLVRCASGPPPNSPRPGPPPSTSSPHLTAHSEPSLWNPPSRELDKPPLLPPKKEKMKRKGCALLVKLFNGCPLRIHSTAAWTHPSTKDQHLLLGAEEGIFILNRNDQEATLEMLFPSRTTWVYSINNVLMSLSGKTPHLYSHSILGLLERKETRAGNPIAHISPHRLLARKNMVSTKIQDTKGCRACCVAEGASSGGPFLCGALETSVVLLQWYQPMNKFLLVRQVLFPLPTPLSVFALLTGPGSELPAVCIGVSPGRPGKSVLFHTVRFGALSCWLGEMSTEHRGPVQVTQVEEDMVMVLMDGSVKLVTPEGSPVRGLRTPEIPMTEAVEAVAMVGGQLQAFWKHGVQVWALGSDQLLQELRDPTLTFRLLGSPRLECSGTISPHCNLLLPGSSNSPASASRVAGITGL

[6] = biological target: T1, Aurora A; experiment: Aurora A enzyme inhibition assay; format: biochemical
Method: Aurora A Enzyme Inhibition Assay
The compound was dissolved in 100% DMSO at the concentration of 10 mM. The Aurora A protein was purchased from Carna (05-101). 10 μL per well of 2.5×Aurora A protein was added to assay plate containing the test compound, centrifuged at 1000 rpm for 1 minute, and then incubated at 25° C. for 10 minutes. Peptide 21 was purchased from GL Biochem (116370) and ATP was purchased from Promega (V9102). The two were added 15 μL per well mixture of 1.67× peptide 21 (final conc. is 3 μM) and ATP (final conc. is 14.58 μM), centrifuged at 1000 rpm for 1 minute, then incubated at 25° C. for 40 minutes. Then added 30 μL of stop buffer (100 mM HEPES pH7.5, 0.015% Brij-35, 0.2% Coating Reagent 3, 50 mM EDTA) to the assay plate and centrifuged at 1000 rpm for 1 minute. the product was determined. Based on the results, the IC50 value of the compound was calculated.

[7] = biological target: T2, HPK1; experiment: HPK1 enzyme inhibition assay (ADP-Glo); format: biochemical
Method: HPK1 Enzyme Inhibition Assay
The compound was dissolved in 100% DMSO at the concentration of 10 mM. The HPK1 protein was purchased from Signal Chem (M23-11G-10). 2.5 μL per well of 2×HPK1 protein was added to assay plate containing the test compound, centrifuged at 1500 rpm for 1 minute, and then incubated at 25° C. for 60 minutes. MBP protein was purchased from Signal Chem (M42-51N) and ATP was purchased from Promega (V9102). The two were added 2.5 μL per well mixture of 2×MBP (0.2 ug/ul) and ATP (20 μM), centrifuged at 1500 rpm for 1 minute, then incubated at 25° C. for 60 minutes. Then added 5 μL of ADP-Glo from Promega (V9102) to the assay plate and depleted the unconsumed ATP for 60 minutes. Then centrifuged at 1500 rpm for 1 minute and incubated at 25° C. for 60 minutes. Finally, 10 μL of the kinase assay reagent from Promega (V9102) was added to the assay plate to convert ADP to ATP, centrifuged at 1500 rpm for 1 minute, incubate at 25° C. for 40 minutes. After 40 minutes incubation, the […] was determined. Based on the results, the IC50 value of the compound was calculated.
Target sequence in this assay (Q92918 1-346 limits assumed): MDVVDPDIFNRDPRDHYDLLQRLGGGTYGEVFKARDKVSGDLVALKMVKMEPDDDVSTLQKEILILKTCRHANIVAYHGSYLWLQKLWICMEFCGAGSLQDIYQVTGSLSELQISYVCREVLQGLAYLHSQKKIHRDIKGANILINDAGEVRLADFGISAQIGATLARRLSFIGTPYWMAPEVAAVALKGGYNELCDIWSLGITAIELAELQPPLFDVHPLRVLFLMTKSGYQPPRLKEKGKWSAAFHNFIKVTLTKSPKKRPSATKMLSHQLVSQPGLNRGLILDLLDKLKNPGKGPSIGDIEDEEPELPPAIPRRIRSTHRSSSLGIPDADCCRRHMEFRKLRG

[8] = enzyme inhibition, read-out: FLT3-ITD IC50
[9] = protein degradation, class symbol, read-out: FLT3 DC50 (nM)/Dmax (%)
[10] = class symbol, read-out: Aurora A DC50 (nM)/Dmax (%)
[11] = protein degradation, human PBMC, read-out: HPK1 DC50
[12] = protein degradation, human PBMC
[13] = protein degradation, human PBMC, class symbol, read-out: HPK1 DC50 (nM)/Dmax (%)

Structure (SMILES) | DC50 ([1]; read-out: MEK 1/2 DC50) [nM] | IC50 [2, 8] [µM] | DC50 [3, 9] [nM] | DC50 [4, 10] [nM] | IC50 [6] [µM] | IC50 [7] [µM] | DC50 [5, 13] [nM] | MEK 1/2 Dmax [1] [%] | also measured
CCc1c[nH]c2ncc(-c3cccc(N4CCCN(CCN5CC(c6ccc7c(c6)CN(C6CCC(=O)NC6=O)C7=O)C5)C4=O)c3)c(Cl)c12 (centres unmarked) [Example 2] |  |  |  |  |  |  |  |  | DC50 ([1]; read-out: MEK 1/2 DC50 (nM)/Dmax (%), class symbol): > 10000 nM; IC50 [2]: 0.0047 µM; DC50 ([3]; read-out: FLT3 DC50 (nM)/Dmax (%), protein degradation, class symbol): > 10000 nM; DC50 ([4]; read-out: Aurora A DC50 (nM)/Dmax (%), class symbol): > 10000 nM; DC50 ([5]; read-out: HPK1 DC50, protein degradation, human PBMC): 3 nM; Dmax [5]: 80%
CCc1c[nH]c2ncc(-c3cccc(N4CCCN(CCN5CCN(c6ccc7c(N8CCC(=O)NC8=O)cccc7c6)CC5)C4=O)c3)c(Cl)c12 [Example 4, 1-(6-(4-(2-(3-(3-(4-chloro-3-ethyl-1H-pyrrolo [2,3-b]pyridin-5-yl)phenyl)-2-oxotetrahydropyrimidin-1 (2H)-yl)ethyl)piperazin-1-yl)naphthalen-1-yl) dihydropyrimidine-2, 4 (1H, 3H)-dione] | < 1 | 0.024 | > 10000 | > 10000 | 0.0252 | 0.0171 | > 10000 | 30 | 
CCc1c[nH]c2ncc(-c3cccc(N4CCCN(CCN5CC(c6ccc7c(c6)C(=O)N(C6CCC(=O)NC6=O)C7=O)C5)C4=O)c3)c(Cl)c12 (centres unmarked) [Example 6, 5-(1-(2-(3-(3-(4-chloro-3-ethyl-1H-pyrrolo [2,3-b]pyridin-5-yl)phenyl)-2-oxotetra hydropyrimidin-1 (2H)-yl)ethyl)azetidin-3-yl)-2-(2,6-dioxopiperidin-3-yl) isoindo line-1,3-dione] | < 1 | 0.0184 | > 10000 | > 10000 | 0.0099 | 0.0031 | > 10000 | 32 | 
CCc1c[nH]c2ncc(-c3cccc(N4CCCN(CC5CCN(c6ccc7c(c6)C(=O)N(C6CCC(=O)N(C)C6=O)C7=O)CC5)C4=O)c3)c(Cl)c12 (centres unmarked) [Example 10, 5-(4-((3-(3-(4-chloro-3-ethyl-1H-pyrrolo [2,3-b]pyridin-5-yl)phenyl)-2-oxotetrahydropyrimidin-1 (2H)-yl)methyl)piperidin-1-yl)-2-(1-methyl-2,6-dioxopiperidin-3-yl) isoindoline-1,3-dione] |  | 0.0074 |  |  | 0.0348 | 0.0307 |  |  | 
O=C1CCC(N2Cc3cc(N4CCC(CN5CCCN(c6cccc(-c7cnc8[nH]cc(C9CC9)c8c7Cl)c6)C5=O)CC4)ccc3C2=O)C(=O)N1 (centres unmarked) [Example 12, 3-[5-(4-{[3-(3-{4-chloro-3-cyclopropyl-1H-pyrrolo [2,3-b]pyridin-3-yl}phenyl)-2-oxo-1,3-diazinan-1-yl]methyl}piperidin-1-yl)-1-oxo-3H-isoindol-2-yl]piperidine-2,6-dione] |  |  |  |  |  | 0.0343 |  |  | 
O=C1CCC(N2Cc3cc(N4CCC(CN5CCCN(c6cccc(-c7cnc8[nH]cc(CC(F)F)c8c7Cl)c6)C5=O)CC4)ccc3C2=O)C(=O)N1 (centres unmarked) [Example 14] | < 100 |  |  |  |  | 0.0258 |  | 90 | FLT3 Dmax ([3]; protein degradation): 95%; DC50 ([3]; protein degradation, read-out: FLT3 DC50): 11 nM; DC50 ([4]; read-out: Aurora A DC50): < 20 nM; Dmax ([4]; read-out: Aurora A Dmax): 95%; DC50 [5, 11]: 100 nM; Dmax [5, 12]: 90%

Second part, led by results:

DC50 ([1]; read-out: MEK 1/2 DC50) [nM] | IC50 [2, 8] [µM] | DC50 [3, 9] [nM] | DC50 [4, 10] [nM] | IC50 [6] [µM] | IC50 [7] [µM] | DC50 [5, 13] [nM] | Structure (SMILES) | MEK 1/2 Dmax [1] [%] | also measured
68 | 0.004 | > 10000 | > 10000 |  |  |  | CCc1c[nH]c2ncc(-c3cccc(N4CCCN(CCN5CC(c6ccc7c(c6)C(=O)N(C6CCC(=O)NC6=O)C7)C5)C4=O)c3)c(Cl)c12 (centres unmarked) [Example 1] | 20 | DC50 [5, 11]: 173 nM; Dmax [5, 12]: 75%
 | 0.0136 |  |  | 0.0508 | 0.0058 |  | CCc1c[nH]c2ncc(-c3cccc(N4CCCN(CCN5CCC(c6ccc7c(c6)C(=O)N(C6CCC(=O)NC6=O)C7=O)CC5)C4=O)c3)c(Cl)c12 (centres unmarked) [Example 3, 5-(1-(2-(3-(3-(4-chloro-3-ethyl-1H-pyrrolo [2,3-b]pyridin-5-yl)phenyl)-2-oxotetrahydropyrimidin-1 (2H)-yl)ethyl)piperidin-4-yl)-2-(2,6-dioxopiperidin-3-yl) isoindoline-1,3-dione] |  | 
2.1 | 0.0277 | > 10000 | > 10000 | 0.0218 | 0.0134 | > 10000 | CCc1c[nH]c2ncc(-c3cccc(N4CCCN(CCN5CC=C(c6ccc7c(c6)C(=O)N(C6CCC(=O)NC6=O)C7=O)CC5)C4=O)c3)c(Cl)c12 (centres unmarked) [Example 5, 5-(1-(2-(3-(3-(4-chloro-3-ethyl-1H-pyrrolo [2,3-b]pyridin-5-yl)phenyl)-2-oxotetrahydropyrimidin-1 (2H)-yl)ethyl)-1,2,3,6-tetrahydropyridin-4-yl)-2-(2,6-dioxopiperidin-3-yl) isoindoline-1,3-dione] | 65 | 
